Measurements: US20120329761A1, “USE OF TIGECYCLINE FOR TREATMENT OF CANCER” (UNIVERSITY HEALTH NETWORK, priority 2010, published 2012)

How the values were obtained:
TEX cells = experiment: ROS generation, DCF-DA and DHE staining; format: cell-based, human; settings: time-points up to 24 hours
Description: FIG. 4. […] (A) Cells from TEX, OCI-AML2 and two primary AML patients were treated with increasing concentrations (2.5 μM and 5 μM) of tigecycline for 36 and 48 hours of tigecycline. Total proteins were extracted and analyzed by western blotting for Cox-1, Cox-2, Cox-4, grp78, XIAP, actin and tubulin. (B) TEX and AML patient cells were treated with increasing concentrations (2.5 μM and 5 μM) of tigecycline. Cox-1, Cox-2, and Cox-4 mRNA expression relative 18S was determined by quantitative RT-PCR. Data is shown as mean±SD. (C) TEX cells were treated with increasing concentrations of tigecycline and chloramphenicol (CAP) for 72 hours. Complex I, II and IV enzyme activity relative to citrate synthase activity was determined as described in materials and methods. (D) Cells from TEX, primary AML patients, and normal donors were treated with increasing concentrations of tigecycline. Mitochondrial membrane potential (Δψ) was determined by staining cells with JC-1 dye, and flow cytometry analysis (Red/Green ratio). Reactive oxygen species generation (ROS) was determined by staining with h2-DCFDA and Dihydroethidium (DHE).
A byproduct of the mitochondrial enzyme activities of the electron transport chain is the generation of reactive oxygen species (ROS). […] Therefore, the role of tigecycline on ROS generation in leukemia cells by analyzing hydrogen peroxide ions (H2O2) using a dichlorofluorescein dye (DCF-DA), and superoxide anions using dihydroethidium (DHE) was examined.

[1] = system: acute myeloid leukemia (AML); settings: 13 patients treated; cited from earlier work

For C=C(C)[C@H]1Cc2c(ccc3c2O[C@@H]2COc4cc(OC)c(OC)cc4[C@@H]2C3=O)O1 [rotenone], the ROS generation (TEX cells) was “rapid increases in ROS levels”.
With antimycin the ROS generation (TEX cells) was “rapid increases in ROS levels”.
For NC(=O)c1ncn([C@@H]2O[C@H](CO)[C@@H](O)[C@H]2O)n1 [ribavirin], the “complete remission (number of patients)” value [1] is given as 1 and the “partial remissions (number of patients)” value [1] is given as 2.
With CC[C@H]1/C=C/C=C/C[C@@H](C)[C@H](O)[C@@](C)(O)C(=O)[C@@H](C)[C@H](O)[C@@H](C)C(=O)[C@@H](C)[C@H](O)[C@@H](C)/C=C/C(=O)O[C@@H]2[C@H](C)[C@H](CC1)O[C@]1(CC[C@H](C)[C@H](C[C@@H](C)O)O1)[C@H]2C [oligomycin] the ROS generation (TEX cells) was “rapid increases in ROS levels”.
